Assays:
[1] = Corrosion testing of 316 steel coupons in acidic fluids with corrosion inhibitors
Excerpt: Corrosion inhibitor compositions according to preferred embodiments of the present invention were exposed to corrosion testing. Various steel grades (stainless steel and carbon steel) were subjected to acid compositions comprising corrosion inhibitors according to the present invention against known corrosion inhibitors to the listed compositions for various periods of time at varying temperatures. A desirable corrosion inhibition result was one where the lb/ft^2 corrosion number is at or below 0.05. More preferably, that number is at or below 0.02.
33% HCl:MEA in a 5.5:1 ratio and 50% HCl:MEA in a 5.5:1 ratio indicate the volume amount of the original concentration of a stock solution containing HCl and monoethanolamine in a ratio of 5.5:1. The HCl loading of a 33% HCl:MEA in a 5.5:1 ratio is approximately 6.5% HCl. The HCl loading of 50% HCl:MEA in a 5.5:1 ratio is approximately 10% HCl.

[2] = Visual corrosion testing on grease-coated wireline (Example 7); settings: MEA-HCl 1:4.1 molar ratio at 33% dilution in water; 48 hours; 60° C.
Description: A visual corrosion testing was carried out on wireline using three different coatings.
It is worth noting that the acid strength was the same in all three samples and the acidic composition only differed between the first two samples and the last sample with the presence of component B2.

Row | Compound | film forming, protection of the stainless steel ([1]; 90° C. to 110° C.) | prevention of pitting ([1]; higher temperatures (even 110° C. to 120° C.)) | visual inspection of wireline wire sheathing after acid exposure [2]
1 | O=CC=Cc1ccccc1 [ZA, cinnamaldehyde] | effective film former | – | –
2 | CC(C)=CCCC(C)=CC=O (racemic) [citral, (±)-3,7-Dimethyl-2,6-octadienal] | – | some effectiveness | completely stripped of its wire sheathing
